The results in this text go back to patent publication US20130261173A1, “CYCLODEXTRIN-BASED POLYMERS FOR THERAPEUTIC DELIVERY” (CERULEAN PHARMA INC., priority 2009, published 2013).

Data set [1] concerns B16.F10 cells. Briefly: Efficacy in a murine melanoma model (subcutaneous B16.F10 tumors). It counts as in vivo, male C57BL/6 mice. How it is done: Animals were monitored for any morbidity and adverse effect three times a week.
Tumor volume was calculated with a (width×width×length)/2 mm^3 formula.

Data set [2] has as its system B16.F10 cells. The experiment in a line: CellTiter-Glo Luminescent Cell Viability Assay (cytotoxicity). The class given is cell-based, murine. The protocol: To measure the cytotoxic effect of CDP-linker-docetaxel compounds, the CellTiter-Glo Luminescent Cell Viability Assay (CTG) was used. […] B16.F10 cells, grown to 85-90% confluency in 150 cm2 flasks (passage <30), were resuspended in media (MEM-alpha, 10% HI-FBS, 1×antibiotic-antimycotic solution) and added to 96-well opaque-clear bottom plates at a concentration of 1500 cells/well in 200 μL/well. The cells were incubated at 37° C. with 5% CO2 for 24 hours. The following day, serial dilutions of 2× concentrated particles and 2× concentrated free drug were made in 12-well reservoirs with media to specified concentrations. The media in the plates was replaced with […], of fresh media and 100 μL of the corresponding serially diluted drug. Three sets of plates were prepared with duplicate treatments. Following 24, 48 and 72 hours of incubation at 37° C. with 5% CO2, the media in the plates was replaced with 100 μL of fresh media and 100 μL of CTG solution, and then incubated for 5 minutes on a plate shaker at room temperature set to 450 rpm and allowed to rest for 15 minutes. Viable cells were measured by luminescence using a microtiter plate reader. The data was plotted as % viability vs. concentration and standardized to untreated cells.
In general terms: Cellular ATP, detected with luciferase, serves as a proxy for viable cell number.

Data set [3] in a line: Tolerability in the murine melanoma model (body weight). It counts as in vivo, male C57BL/6 mice.
Description: The treatments were administered IV into the tail vein at a dose volume of 10 mL/kg, beginning on post-implantation day 5, when the mean tumor volume was ca. 60 mm^3. Animals were monitored for any morbidity and adverse effect three times a week. In addition, body weight and tumor volume were also measured three times a week.
Tolerability was determined by changes in body weight, expressed as a percent of the initial body weight on post-implantation day 5. Health monitoring was conducted three times a week to evaluate lethargy, tremors, hypothermia, ataxia, hind limb paralysis etc. The criteria at which a mouse was removed from the study were >20% body weight loss or severe morbidity or hind limb paralysis.
Setting [4] is: 15 mg/kg IV, three injections over 2 weeks (twice per week).
Setting [5] is: 15 mg/kg IV, three injections over 2 weeks (twice per week), listed as free docetaxel.
Setting [6] is: 15 mg/kg IV, weekly schedule for 3 injections.
Setting [7] is: 30 mg/kg IV, biweekly schedule for 2 injections.
[8] abbreviates: 30 mg/kg IV, weekly schedule for 3 injections (study of 1.4, 2.3, 4.2, 5.2).
[9] abbreviates: 30 mg/kg IV, weekly schedule for 3 injections (study of 1.5).

Values joined by “and” are separate entries in the source; they are usually repeats but may differ in a detail not shown here. Equal entries are not always repeated. Where two headings read alike, the source gives them in different places.

The term IC50 denotes the concentration at which inhibition is half-maximal. Lower therefore signals higher potency. For `CC(=O)O[C@@]12CO[C@@H]1C[C@H](O)[C@@]1(C)C(=O)[C@H](O)C3=C(C)[C@@H](OC(=O)[C@H](O)[C@@H](NC(=O)OC(C)(C)C)c4ccccc4)C[C@@](O)([C@@H](OC(=O)c4ccccc4)[C@H]21)C3(C)C` [Free docetaxel, docetaxel, reference compound], the “Tumor growth delay (TGD)” value with B16.F10 cells [1] (setting [4]) is recorded as 15 days; in the data set with B16.F10 cells [1] (setting [6]), 7 days; with B16.F10 cells [1] (setting [7]) it was 7 days; in the data set on B16.F10 cells [1] (setting [8]), 12 days; in the data set with B16.F10 cells [1] (setting [9]), 21 days. Besides, the “Tumor growth inhibition (% TGI)” value in the data set with B16.F10 cells [1] (setting [4]) is given as 97%; with B16.F10 cells [1] (setting [5]), 97%; in the data set on B16.F10 cells [1] (setting [6]), 68%; with B16.F10 cells [1] (15 mg/kg IV, weekly schedule for 3 injections, listed as free docetaxel), 68%; in the data set on B16.F10 cells [1] (setting [7]), 73%; with B16.F10 cells [1] (30 mg/kg IV, biweekly schedule for 2 injections, listed as free docetaxel), 73%. Also, the “increase in TGD” value was found to be 79% in the data set on B16.F10 cells [1] (setting [4]), 37% with B16.F10 cells [1] (setting [6]), 63% with B16.F10 cells [1] (setting [8]) and 105% in the data set with B16.F10 cells [1] (setting [9]). In addition, the “day the mean tumor volume endpoint (≧3000 mm^3) was reached” value was 34 days and 35 days in the data set with B16.F10 cells [1] (setting [5]); 26 days in the data set on B16.F10 cells [1] (setting [6]); 26 days in the data set with B16.F10 cells [1] (setting [7]); 31 days with B16.F10 cells [1] (setting [8]); 41 days with B16.F10 cells [1] (setting [9]). Moreover, the survival with B16.F10 cells [1] (15 mg/kg IV, three injections over 2 weeks, day 33) worked out at 50%; with B16.F10 cells [1] (15 mg/kg IV, three injections over 2 weeks, day 40), 0%; in the data set with B16.F10 cells [1] (30 mg/kg IV, biweekly for 2 injections, day 24), 50%; in the data set with B16.F10 cells [1] (30 mg/kg IV, biweekly for 2 injections, day 31), 0%; in the data set on B16.F10 cells [1] (30 mg/kg IV, weekly for 3 injections (study of 1.4, 2.3, 5.2), day 29), 50%; in the data set on B16.F10 cells [1] (30 mg/kg IV, weekly for 3 injections (study of 1.4, 2.3, 5.2), day 38), 0%. Also, the survival in the data set with B16.F10 cells [1] (30 mg/kg IV, weekly for 3 injections (study of 1.5), day 40) came out at 50%; in the data set with B16.F10 cells [1] (30 mg/kg IV, weekly for 3 injections (study of 1.5), day 45) it was 0%. In the data set on B16.F10 cells [2] (Mus musculus, B16.F10 cells, 72 hours after treatment), this compound had an IC50 of 0.2 to 2 nM. Besides, the “Maximum body weight loss (%)” value in data set [3] (setting [4]) is 3%; in data set [3] (setting [6]), 0%; in data set [3] (setting [7]), 5%; in data set [3] (setting [8]), 8%; in data set [3] (setting [9]), 12%.

For the compound “CDP-2′-alanine glycolate-docetaxel [CDP-Ala Gly-DTX formulation]”, in the data set with B16.F10 cells [2], the IC50 lay within 0.4 to 2 nM.

As to “CDP-2′-aminoethoxyethoxy-Docetaxel [CDP-aminoethoxyethoxy-DTX formulation]”, the results for the “Maximum body weight loss (%)” value in data set [3] (setting [6]) and in data set [3] (setting [8]) were 7% and 23%, respectively.

“CDP-2′-glycine-docetaxel [CDP-Gly-DTX formulation]”: the half-inhibitory concentration (IC50) with B16.F10 cells [2] (B16.F10 cells, 72 hours after treatment) lay within 1.2 to 3.7 nM.

For “CDP-2′-hexanoate-docetaxel [CDP-Hex-DTX formulation]”, in the data set on B16.F10 cells [1] (mouse, in vivo), the “Tumor growth delay (TGD)” value came to 10 days, the “Tumor growth inhibition (% TGI)” value was 66% and the “increase in TGD” value was 53%. Moreover, the IC50 in the data set on B16.F10 cells [2] lay within 325 to 440 nM.

Regarding “CDP-dithiolethyloxy-carbonate-docetaxel [CDP-ethane-S—S-ethane-DTX formulation]”, the “day the mean tumor volume endpoint (≧3000 mm^3) was reached” value in the data set on B16.F10 cells [1] (mouse, in vivo) was 21 days and 24 days. The compound also registered an IC50 in the data set on B16.F10 cells [2] of 23 nM. For the same compound, the “Maximum body weight loss (%)” value in data set [3] (setting [6]) and in data set [3] (setting [8]) was 0% in each case.
